Assay results taken from ChEMBL document CHEMBL5380816, “Inclusion of Nitrofurantoin into the Realm of Cancer Chemotherapy via Biology-Oriented Synthesis and Drug Repurposing” (J Med Chem, 2023).
Calls of active or inactive are those of the source. No cut-off for these calls is given here.

Experiments:
[1] = Cytotoxicity in human WI-38 cells assessed as reduction in cell viability incubated for 72 hrs by MTT assay; type: toxicity, cell-based
[2] = Cytotoxicity in human WI-38 cells assessed as safe dose incubated for 72 hrs by MTT assay; type: toxicity, cell-based; conditions: read-out: EC100
Caco-2 [3] = assay: Anticancer activity against human Caco-2 cells incubated for 72 hrs by MTT assay; type: functional, cell-based; conditions: Caco-2, 72 h
[4] = Selectivity index, ratio of IC50 for human WI-38 cells to IC50 for human Caco-2 cells
MCF7 [5] = assay: Anticancer activity against human MCF7 cells incubated for 72 hrs by MTT assay; type: functional, cell-based; conditions: MCF7, 72 h
[6] = Selectivity index, ratio of IC50 for human WI-38 cells to IC50 for human MCF7 cells; type: toxicity; conditions: WI-38 cells versus MCF7 cells, read-out: Ratio IC50
HeLa [7] = assay: Anticancer activity against human HeLa cells incubated for 72 hrs by MTT assay; type: functional, cell-based
[8] = Selectivity index, ratio of IC50 for human WI-38 cells to IC50 for human HeLa cells; type: toxicity; conditions: WI-38 cells versus HeLa cells, read-out: Ratio IC50
HepG2 [9] = assay: Anticancer activity against human HepG2 cells incubated for 72 hrs by MTT assay; type: functional, cell-based; conditions: HepG2, 72 h
[10] = Selectivity index, ratio of IC50 for human WI-38 cells to IC50 for human HepG2 cells; type: toxicity; conditions: WI-38 cells versus HepG2 cells, read-out: Ratio IC50
MCF7 [11] = assay: Potency index, ratio of 5-fluorouracil IC50 to test compound IC50 for antiproliferative activity against human MCF7 cells; type: functional
HepG2 [12] = assay: Anticancer activity against human HepG2 cells assessed as losing contact with neighbouring cells incubated at 0.097uM for 72 hrs by phase contrast inverted microscopic analysis; type: functional, cell-based
[13] = target: T1, Tumour suppressor p53/oncoprotein Mdm2 (Homo sapiens, UniProt P04637+Q00987); assay: Inhibition of human recombinant MDM2/p53 interaction measured after 10 mins by ELISA method; type: protein assay
Target sequence in this assay (P04637 whole entry): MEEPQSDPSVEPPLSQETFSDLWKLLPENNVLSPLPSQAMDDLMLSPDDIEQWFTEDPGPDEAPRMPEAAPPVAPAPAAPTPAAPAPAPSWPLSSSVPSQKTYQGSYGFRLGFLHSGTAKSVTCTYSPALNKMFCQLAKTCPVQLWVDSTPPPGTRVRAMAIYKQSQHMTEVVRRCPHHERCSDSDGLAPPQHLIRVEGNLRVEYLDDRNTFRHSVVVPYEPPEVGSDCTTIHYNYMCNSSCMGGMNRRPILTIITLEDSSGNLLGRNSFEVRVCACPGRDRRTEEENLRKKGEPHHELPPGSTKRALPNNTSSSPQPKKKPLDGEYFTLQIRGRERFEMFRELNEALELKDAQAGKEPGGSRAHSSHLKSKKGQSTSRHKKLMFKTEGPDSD
Target sequence in this assay (Q00987 whole entry): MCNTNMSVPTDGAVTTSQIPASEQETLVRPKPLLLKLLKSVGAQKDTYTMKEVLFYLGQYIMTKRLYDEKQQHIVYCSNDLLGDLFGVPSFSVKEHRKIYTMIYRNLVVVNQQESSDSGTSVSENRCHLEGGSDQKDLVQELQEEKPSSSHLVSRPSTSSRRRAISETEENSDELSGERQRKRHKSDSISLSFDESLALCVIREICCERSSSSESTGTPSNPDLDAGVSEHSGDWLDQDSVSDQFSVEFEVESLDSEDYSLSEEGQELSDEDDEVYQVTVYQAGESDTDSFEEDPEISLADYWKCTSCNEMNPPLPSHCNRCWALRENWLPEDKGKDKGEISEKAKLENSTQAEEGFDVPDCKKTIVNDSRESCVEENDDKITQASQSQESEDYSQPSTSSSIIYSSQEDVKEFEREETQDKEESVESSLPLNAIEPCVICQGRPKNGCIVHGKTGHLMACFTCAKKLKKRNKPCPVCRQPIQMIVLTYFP

[14] = target: T1, Tumour suppressor p53/oncoprotein Mdm2; assay: Potency index, ratio of nitrofurantoin IC50 to compound IC50 for inhibition of human recombinant MDM2/p53 interaction; type: protein assay
Target sequence in this assay (P04637 whole entry, looked up): as the sequence (P04637 whole entry) above
Target sequence in this assay (Q00987 whole entry, looked up): as the sequence (Q00987 whole entry) above

Caco-2 [15] = assay: Induction of apoptosis in human Caco-2 cells assessed as increase in Bax expression level relative to nitrofurantoin; type: functional
MCF7 [16] = assay: Induction of apoptosis in human MCF7 cells assessed as increase in Bax expression level relative to nitrofurantoin; type: functional
HepG2 [17] = assay: Induction of apoptosis in human HepG2 cells assessed as increase in Bax expression level relative to nitrofurantoin; type: functional
HeLa [18] = assay: Induction of apoptosis in human HeLa cells assessed as increase in Bax expression level relative to nitrofurantoin; type: functional
Caco-2 [19] = assay: Induction of apoptosis in human Caco-2 cells assessed as increase in Bax expression level relative to 5-fluorouracil; type: functional
MCF7 [20] = assay: Induction of apoptosis in human MCF7 cells assessed as increase in Bax expression level relative to 5-fluorouracil; type: functional
HepG2 [21] = assay: Induction of apoptosis in human HepG2 cells assessed as increase in Bax expression level relative to 5-fluorouracil; type: functional
HeLa [22] = assay: Induction of apoptosis in human HeLa cells assessed as increase in Bax expression level relative to 5-fluorouracil; type: functional
Caco-2 [23] = assay: Induction of apoptosis in human Caco-2 cells assessed as decrease in Bcl-2 expression level incubated for 72 hrs relative to nitrofurantoin; type: functional; design: scale not given: the % may be the effect or the level left
MCF7 [24] = assay: Induction of apoptosis in human MCF7 cells assessed as decrease in Bcl-2 expression level incubated for 72 hrs relative to nitrofurantoin; type: functional; design: scale not given: the % may be the effect or the level left
HepG2 [25] = assay: Induction of apoptosis in human HepG2 cells assessed as decrease in Bcl-2 expression level incubated for 72 hrs relative to nitrofurantoin; type: functional; design: scale not given: the % may be the effect or the level left
HeLa [26] = assay: Induction of apoptosis in human HeLa cells assessed as decrease in Bcl-2 expression level incubated for 72 hrs relative to nitrofurantoin; type: functional; design: scale not given: the % may be the effect or the level left
Caco-2 [27] = assay: Induction of apoptosis in human Caco-2 cells assessed as decrease in Bcl-2 expression level incubated for 72 hrs relative to 5-fluorouracil; type: functional; design: scale not given: the % may be the effect or the level left
MCF7 [28] = assay: Induction of apoptosis in human MCF7 cells assessed as decrease in Bcl-2 expression level incubated for 72 hrs relative to 5-fluorouracil; type: functional; design: scale not given: the % may be the effect or the level left
HepG2 [29] = assay: Induction of apoptosis in human HepG2 cells assessed as decrease in Bcl-2 expression level incubated for 72 hrs relative to 5-fluorouracil; type: functional; design: scale not given: the % may be the effect or the level left
HeLa [30] = assay: Induction of apoptosis in human HeLa cells assessed as decrease in Bcl-2 expression level incubated for 72 hrs relative to 5-fluorouracil; type: functional; design: scale not given: the % may be the effect or the level left
Caco-2 [31] = assay: Induction of apoptosis in human Caco-2 cells assessed as ratio of gene expression activity in pro apoptotic Bax to anti apoptotic Bcl-2; type: functional
MCF7 [32] = assay: Induction of apoptosis in human MCF7 cells assessed as ratio of gene expression activity in pro apoptotic Bax to anti apoptotic Bcl-2; type: functional
HeLa [33] = assay: Induction of apoptosis in human HeLa cells assessed as ratio of gene expression activity in pro apoptotic Bax to anti apoptotic Bcl-2; type: functional
HepG2 [34] = assay: Induction of apoptosis in human HepG2 cells assessed as ratio of gene expression activity in pro apoptotic Bax to anti apoptotic Bcl-2; type: functional
HepG2 [35] = assay: Potency index, ratio of 5-fluorouracil IC50 to test compound IC50 for antiproliferative activity against human HepG2 cells; type: functional
MCF7 [36] = assay: Induction of DNA damage in human MCF7 cells assessed as reduction of p53 ubiquitination at 5 uM incubated for 24 hrs by Western blot analysis; type: functional, cell-based
HeLa [37] = assay: Induction of apoptosis in human HeLa cells assessed as increase in Bax expression level relative to control; type: functional
HepG2 [38] = assay: Induction of apoptosis in human HepG2 cells assessed as increase in Bax expression level relative to control; type: functional
MCF7 [39] = assay: Antitumor activity against human MCF7 cells xenografted in immunocompromised BALB/c mouse model assessed as tumor size reduction administered at 50 mg/kg, ip for 21 days; type: functional, organism-based; conditions: time 21.0 day
MCF7 [40] = assay: Antitumor activity against human MCF7 cells xenografted in immunocompromised BALB/c mouse model assessed as decrease in tumor maas administered at 50 mg/kg, ip for 21 days relative to control; type: functional; design: scale not given: the % may be the effect or the level left; conditions: time 21 day
HepG2 [41] = assay: Induction of apoptosis in human HepG2 cells assessed as viable cells incubated at 0.017 uM for 72 hrs by annexin V-FITC based propidium iodide dual staining assay (reference value: 97.27%); type: functional; conditions: read-out: Activity
HepG2 [42] = assay: Induction of apoptosis in human HepG2 cells assessed as early apoptotic cells incubated at 0.017 uM for 72 hrs by annexin V-FITC based propidium iodide dual staining assay (reference value: 1.74%); type: functional
MCF7 [43] = assay: Anticancer activity against human MCF7 cells assessed as smaller cells incubated at 0.098uM for 72 hrs by phase contrast inverted microscopic analysis; type: functional, cell-based
HeLa [44] = assay: Induction of apoptosis in human HeLa cells assessed as early apoptotic cells by measuring bright green patch incubated at 0.098 uM for 72 hrs by acridine orange-ethidium bromide dual staining based fluorescence microscopic analysis; type: functional, cell-based
HepG2 [45] = assay: Induction of apoptosis in human HepG2 cells assessed as early apoptotic cells by measuring bright green patch incubated at 0.098 uM for 72 hrs by acridine orange-ethidium bromide dual staining based fluorescence microscopic analysis; type: functional, cell-based

Row | SMILES | IC50 at 72 h [1] | MNTC at 72 h [2] | IC50 (Caco-2 [3]) | Ratio IC50 [4] | IC50 (MCF7 [5]) | selectivity ratio [6] | IC50 (HeLa [7]) | selectivity ratio [8] | IC50 (HepG2 [9]) | selectivity ratio [10] | Ratio IC50 (MCF7 [11]) | IC50 [13] | Ratio IC50 [14] | Activity (Caco-2 [15]) | Activity (MCF7 [16]) | Activity (HepG2 [17]) | Ratio (Caco-2 [31]) | Ratio (MCF7 [32]) | Ratio (HeLa [33]) | Ratio (HepG2 [34]) | other results
1 | NS(=O)(=O)c1ccc(-n2cc(CN3C(=O)CN(/N=C/c4ccc([N+](=O)[O-])o4)C3=O)nn2)cc1 | 0.249 µM | 97 nM | 0.08 µM | 3.14 | 0.074 µM | 3.36 | 0.081 µM | 3.08 | 0.309 µM | 0.807 | 1.2 | 0.41 µM | 3.6 | 70% | 70% | 70% | 7.328 | 10.4 | 6.36 | 2.326 | Activity (HepG2 [12]): Active; Activity (HeLa [18]): 70%; Activity (Caco-2 [19]): 70%; Activity (MCF7 [20]): 70%; Activity (HepG2 [21]): 70%; Activity (HeLa [22]): 70%; Activity (Caco-2 [23]): 30%; Activity (MCF7 [24]): 30%; Activity (HepG2 [25]): 30%; Activity (HeLa [26]): 30%; Activity (Caco-2 [27]): 30%; Activity (MCF7 [28]): 30%; Activity (HepG2 [29]): 30%; Activity (HeLa [30]): 30%
2 | C#CCN1C(=O)CN(/N=C/c2ccc([N+](=O)[O-])o2)C1=O | 0.306 µM | 110 nM | 0.099 µM | 3.13 | 0.111 µM | 2.79 | 0.265 µM | 1.16 | 0.089 µM | 3.46 | 1.2 | 0.59 µM | 2.7 | 70% | 70% | 70% | 5.278 | 4.453 | 3.004 | 11.74 | Ratio IC50 (HepG2 [35]): 1.2; Activity (MCF7 [36]): Active; Activity (HeLa [18]): 70%; Activity (Caco-2 [19]): 70%; Activity (MCF7 [20]): 70%; Activity (HepG2 [21]): 70%; Activity (HeLa [22]): 70%; Activity (HeLa [37]): 300%; Activity (HepG2 [38]): 300%; Activity (Caco-2 [23]): 30%; Activity (MCF7 [24]): 30%; Activity (HepG2 [25]): 30%; Activity (HeLa [26]): 30%; Activity (Caco-2 [27]): 30%; Activity (MCF7 [28]): 30%; Activity (HepG2 [29]): 30%; Activity (HeLa [30]): 30%; Activity (MCF7 [39]): Active; Activity (MCF7 [40]): ~65%
3 | O=c1[nH]cc(F)c(=O)[nH]1 [FLUOROURACIL] | 0.192 µM | 17 nM | 0.266 µM | 0.76 | 0.235 µM | 0.865 | 0.199 µM | 1.02 | 0.178 µM | 1.13 |  |  |  |  |  |  | 1.187 | 1.246 | 1.257 | 1.247 | viability at 0.017 µM (HepG2 [41]): 88.4%; Activity (HepG2 [42]): 7.69%; Activity (MCF7 [39]): Active; Activity (MCF7 [40]): ~65%
4 | O=C(CN1C(=O)CN(/N=C/c2ccc([N+](=O)[O-])o2)C1=O)c1ccc(Cl)cc1 | 0.251 µM | 98 nM | 0.134 µM | 1.87 | 0.117 µM | 2.14 | 0.062 µM | 4.04 | 0.11 µM | 2.29 | 1.2 | 0.67 µM | 2.4 | 70% | 70% | 70% | 3.396 | 5.104 | 11.09 | 4.215 | Ratio IC50 (HepG2 [35]): 1.6; Activity (MCF7 [43]): Active; Activity (HeLa [44]): Active; Activity (HepG2 [45]): Active; Activity (HeLa [18]): 70%; Activity (Caco-2 [19]): 70%; Activity (MCF7 [20]): 70%; Activity (HepG2 [21]): 70%; Activity (HeLa [22]): 70%; Activity (HeLa [37]): 300%; Activity (HepG2 [38]): 300%; Activity (Caco-2 [23]): 30%; Activity (MCF7 [24]): 30%; Activity (HepG2 [25]): 30%; Activity (HeLa [26]): 30%; Activity (Caco-2 [27]): 30%; Activity (MCF7 [28]): 30%; Activity (HepG2 [29]): 30%; Activity (HeLa [30]): 30%
